Data on one compound can be found in ChEMBL document CHEMBL5029165, “Derivatives of montanine-type alkaloids and their implication for the treatment of Alzheimer's disease: Synthesis, biological activity and in silico study” (Bioorg Med Chem Lett, 2021).

In test [1] the target is T1, Acetylcholinesterase (Homo sapiens, UniProt P22303). As to the kind of experiment: Inhibition of human AChE at 100 uM using acetylthiocholine as substrate by Ellman's method. In general terms: Ellman's reagent forms a yellow product with free thiols.
T1 sequence (P22303 whole entry): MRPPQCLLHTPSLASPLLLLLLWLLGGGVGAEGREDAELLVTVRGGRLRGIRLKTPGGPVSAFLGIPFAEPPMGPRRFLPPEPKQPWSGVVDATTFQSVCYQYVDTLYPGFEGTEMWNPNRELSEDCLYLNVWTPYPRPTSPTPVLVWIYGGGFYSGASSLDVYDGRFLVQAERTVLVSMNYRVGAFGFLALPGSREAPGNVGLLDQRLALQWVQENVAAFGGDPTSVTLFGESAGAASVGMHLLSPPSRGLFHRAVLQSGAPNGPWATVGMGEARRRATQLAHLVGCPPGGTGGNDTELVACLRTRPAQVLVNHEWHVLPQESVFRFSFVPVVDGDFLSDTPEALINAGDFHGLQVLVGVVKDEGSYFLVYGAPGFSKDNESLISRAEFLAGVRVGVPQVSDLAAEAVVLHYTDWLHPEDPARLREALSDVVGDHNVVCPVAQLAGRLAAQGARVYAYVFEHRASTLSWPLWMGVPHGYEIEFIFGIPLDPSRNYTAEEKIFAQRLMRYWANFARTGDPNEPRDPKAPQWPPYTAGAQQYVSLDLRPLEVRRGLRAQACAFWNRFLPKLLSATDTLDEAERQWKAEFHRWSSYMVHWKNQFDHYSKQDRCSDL
Test [2] deals with T1, Acetylcholinesterase. The test can be described thus: Inhibition of human AChE using acetylthiocholine as substrate by Ellman's method.
Test [3] in a line: Selectivity index, ratio of IC50 for human BuChe to IC50 for human AChE.
Test [4] concerns the target T2, Cholinesterase (Homo sapiens, UniProt P06276). As to the kind of experiment: Inhibition of human BuChE at 100 uM using butyrylthiocholine chloride as substrate by Ellman's method.
Test [5] addresses T2, Cholinesterase. The test can be described thus: Inhibition of human BuChE using butyrylthiocholine chloride as substrate by Ellman's method.
Test [6] can be described thus: Selectivity index, ratio of IC50 for human AChE to IC50 for human BuChe.

T2 sequence (P06276 whole entry): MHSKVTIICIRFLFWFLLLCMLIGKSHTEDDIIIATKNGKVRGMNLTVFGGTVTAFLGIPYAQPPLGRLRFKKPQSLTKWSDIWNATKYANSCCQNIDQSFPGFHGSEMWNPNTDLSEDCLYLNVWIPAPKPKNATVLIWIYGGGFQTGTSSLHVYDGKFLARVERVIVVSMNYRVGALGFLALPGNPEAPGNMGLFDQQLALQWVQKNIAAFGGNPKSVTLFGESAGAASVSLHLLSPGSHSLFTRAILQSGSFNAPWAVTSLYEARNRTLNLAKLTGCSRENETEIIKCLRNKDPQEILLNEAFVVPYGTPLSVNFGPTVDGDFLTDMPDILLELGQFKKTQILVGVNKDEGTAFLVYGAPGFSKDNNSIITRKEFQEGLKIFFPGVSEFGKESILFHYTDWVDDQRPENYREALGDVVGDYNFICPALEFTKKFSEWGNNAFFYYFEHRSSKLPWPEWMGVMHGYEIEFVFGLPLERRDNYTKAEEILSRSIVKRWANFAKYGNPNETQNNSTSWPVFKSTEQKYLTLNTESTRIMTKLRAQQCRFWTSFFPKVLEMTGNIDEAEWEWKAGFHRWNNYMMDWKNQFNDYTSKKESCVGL

In the case of `CO[C@H]1C=C2[C@H]3CN(Cc4cc5c(cc43)OCO5)[C@H]2C[C@@H]1OC(=O)N1CCCCC1`, the inhibition at Acetylcholinesterase [1] came to 10.9%; on Cholinesterase [4] it was 88.2%. Moreover, the IC50 at Acetylcholinesterase [2] was > 100 µM; against Cholinesterase [5], 6.54 µM. The figures for the Selectivity Index in test [3] and in test [6] were < 0.07 and > 15.3, respectively.

Usually inhibition stands for the relative decrease from the control value, in per cent. As usually defined, the IC50 is the concentration at which inhibition is half-maximal. A higher IC50 goes with lower potency.
